The structures appear in SMILES notation.

The test relates to influenza B virus. Also on record: species or system human (patient). The note with it: human, in vivo, po.

Turning to `CCOC(=O)C1=C[C@@H](OC(CC)CC)[C@H](NC(C)=O)[C@@H](N)C1` [Oseltamivir, oseltamivir], the “NPAs tested for influenza B virus after oseltamivir treatment” value is on record as “still positive”.

These data come from paper PMC4176448 (The Journal of Infectious Diseases, 2014).
